Test results taken from US8232414B2, “Polymorphic form of rotigotine and process for production” (UCB Pharma GmbH, priority 2007, dated 2012).

Experiments:
[1] = Solubility in EtOH at room temperature; assay type: physicochemical
[2] = Thermodynamic stability from DSC (melting point, enthalpy of fusion; Burger-Ramberger rules); assay type: physicochemical; conditions: heating rate 10° C./min, 30° C. to 140° C., Burger-Ramberger rules applied
From the text: Polymorph form (II) of rotigotine can be further characterized and distinguished from form (I) by differential scanning calorimetry (DSC). A DSC thermogram of form (II) is provided in FIG. 5, and was obtained using DSC techniques known to those of skill in the art. One of skill in the art would readily be able to determine the conditions necessary to obtain a DSC thermogram of form (II). A variety of differential scanning calorimeters are available to those of skill in the art and include the Differential Scanning Calorimeter of Mettler Toledo (DSC822e) using temperatures of about 25° C. to about 250° C., in particular about 30° C. to about 140° C. and temperature increases at various rates including 1° C./min, 10° C./min, 20° C./min, among other instruments and conditions. One skilled in the art would recognize that the peak positions in the DSC thermogram can vary depending upon kinetic factors such as, for example, heating rate and particle size. Thermal behavior investigations of rotigotine of polymorphic form (I) (batch 1608726) and of polymorphic form (II) (batch 7769396) were performed on a Mettler Toledo DSC system and on a TA instrument (Q-1000). The analyses were carried out with a heating rate of 10° C./min in pierced aluminum crucibles in a temperature range from 30° C. to 140° C.

solubility in EtOH [1]	solubility in EtOH relative to polymorphic form (I) ([1]; form (II) versus form (I))	Compound	thermodynamic stability relative to form (I) [2]	thermodynamic stability relative to form (I) ([2]; listed as form (II))
about 500 mg/ml	–	CCCN(CCc1cccs1)[C@H]1CCc2c(O)cccc2C1 [polymorphic form (I), (−)-5,6,7,8-tetrahydro-6-[propyl-[2-(2-thienyl)ethyl]amino]-1-naphthalenol, reference compound]	–	–
60 to 100 mg/mL	at least five times lower	CCCN(CCc1cccs1)[C@H]1CCc2c(O)cccc2C1 [polymorphic form (II), (−)-5,6,7,8-tetrahydro-6-[propyl-[2-(2-thienyl)ethyl]amino]-1-naphthalenol]	thermodynamically more stable than polymorphic form (I) at all considered temperatures	thermodynamically more stable than form (I) at any temperature considered
